Test results taken from ChEMBL document CHEMBL4376849, “Harmicines - harmine and cinnamic acid hybrids as novel antiplasmodial hits” (Eur J Med Chem, 2020).

Experiments:
Plasmodium falciparum [1] = assay: Antiplasmodial activity against chloroquine-resistant Plasmodium falciparum Dd2 erythrocytic stage measured after 3 days by HRP2 assay; type: functional, organism-based; details: Dd2, 72 h
[2] = Selectivity index, ratio of IC50 for human HepG2 cells to IC50 for Plasmodium falciparum 3D7; type: toxicity; details: read-out: Ratio IC50
HepG2 = assay: Cytotoxicity against human HepG2 cells measured after 24 hrs by neutral red assay; type: cell-based; details: HepG2, 24 h
Plasmodium falciparum [3] = assay: Antiplasmodial activity against chloroquine-sensitive Plasmodium falciparum 3D7 erythrocytic stage measured after 3 days by HRP2 assay; type: functional, organism-based; details: 3D7, 72 h
Plasmodium berghei = assay: Antiplasmodial activity against liver stage luciferase expressing Plasmodium berghei sporozoites infected in human Huh7 cells preincubated with host cells for 1 hr followed by plasmodium infection by bioluminescence assay; type: functional, organism-based; details: Huh-7

Structure (SMILES)	IC50 (Plasmodium falciparum [1]) [nM]	selectivity ratio [2]	IC50 (HepG2) [nM]	IC50 (Plasmodium falciparum [3]) [nM]	IC50 (Plasmodium berghei) [nM]
Cc1nccc2c1[nH]c1cc(OCc3cn(C/C=C/c4ccc(F)c(F)c4)nn3)ccc12	1010	2	740	340	–
COc1ccc(/C=C/Cn2cc(Cn3c4cc(OC)ccc4c4ccnc(C)c43)nn2)cc1	16600	> 197	> 120000	610	–
COc1ccc(/C=C/Cn2cc(COc3ccc4c(c3)[nH]c3c(C)nccc34)nn2)cc1	690	12	5370	430	–
COc1ccc2c3ccnc(C)c3n(Cc3cn(C/C=C/c4cccc(F)c4)nn3)c2c1	2700	> 281	> 250000	890	–
COc1ccc2c3ccnc(C)c3n(Cc3cn(C/C=C/c4cccc(Br)c4)nn3)c2c1	2260	101	56600	560	1100
COc1ccc2c(c1)[nH]c1c(C)nccc12 [HARMINE]	> 27700	–	> 250000	–	–
Cc1nccc2c1[nH]c1cc(OCc3cn(C/C=C/c4ccc5c(c4)OCO5)nn3)ccc12	470	35	5600	160	–
COc1ccc2c3ccnc(C)c3n(Cc3cn(C/C=C/c4ccccc4)nn3)c2c1	23800	> 198	> 250000	1260	2620
COc1ccc2c3ccnc(C)c3n(Cc3cn(C/C=C/c4ccc(F)c(F)c4)nn3)c2c1	2550	15	9750	650	–
COc1ccc2c3ccnc(C)c3n(Cc3cn(C/C=C/c4ccc5c(c4)OCO5)nn3)c2c1	1570	18	8780	500	–
COc1ccc2c3ccnc(C)c3n(Cc3cn(C/C=C/c4ccc(F)cc4)nn3)c2c1	2210	10	8880	870	–
COc1ccc(/C=C/Cn2cc(COc3ccc4c5ccnc(C)c5n(Cc5cn(C/C=C/c6ccc(OC)cc6)nn5)c4c3)nn2)cc1	160	333	43300	130	400
Cc1nccc2c1[nH]c1cc(OCc3cn(C/C=C/c4ccccc4)nn3)ccc12	1090	37	9670	260	–
Cc1nccc2c3ccc(OCc4cn(C/C=C/c5ccccc5)nn4)cc3n(Cc3cn(C/C=C/c4ccccc4)nn3)c12	1590	15	8590	560	–
C/C(=C\c1ccccc1)Cn1cc(COc2ccc3c(c2)[nH]c2c(C)nccc23)nn1	3060	77	25300	330	660
COc1ccc2c3ccnc(C)c3n(Cc3cn(C/C=C/c4ccc(Cl)cc4)nn3)c2c1	1870	> 568	> 250000	440	1120
COc1ccc2c3ccnc(C)c3n(Cc3cn(C/C(C)=C/c4ccccc4)nn3)c2c1	2820	15	11900	770	–
Cc1nccc2c1[nH]c1cc(OCc3cn(C/C=C/c4cccc(F)c4)nn3)ccc12	1190	16	3110	200	–
C/C(=C\c1ccccc1)Cn1cc(COc2ccc3c4ccnc(C)c4n(Cc4cn(C/C(C)=C/c5ccccc5)nn4)c3c2)nn1	4020	19	25000	1340	–
Cc1nccc2c3ccc(OCc4cn(C/C=C/c5cccc(F)c5)nn4)cc3n(Cc3cn(C/C=C/c4cccc(F)c4)nn3)c12	3230	2	6010	–	–
Cc1nccc2c3ccc(OCc4cn(C/C=C/c5ccc6c(c5)OCO6)nn4)cc3n(Cc3cn(C/C=C/c4ccc5c(c4)OCO5)nn3)c12	650	82	36100	440	–
Cc1nccc2c3ccc(OCc4cn(C/C=C/c5ccc(Cl)cc5)nn4)cc3n(Cc3cn(C/C=C/c4ccc(Cl)cc4)nn3)c12	3280	116	29000	250	–
Cc1nccc2c1[nH]c1cc(OCc3cn(C/C=C/c4ccc(F)cc4)nn3)ccc12	840	11	2190	200	–
Cc1nccc2c1[nH]c1cc(OCc3cn(C/C=C/c4cccc(Br)c4)nn3)ccc12	460	22	2860	130	–
Cc1nccc2c1[nH]c1cc(OCc3cn(C/C=C/c4ccc(Cl)cc4)nn3)ccc12	690	59	8800	150	–
Cc1nccc2c3ccc(OCc4cn(C/C=C/c5ccc(F)cc5)nn4)cc3n(Cc3cn(C/C=C/c4ccc(F)cc4)nn3)c12	8000	20	12100	620	–
Cc1nccc2c3ccc(OCc4cn(C/C=C/c5ccc(F)c(F)c5)nn4)cc3n(Cc3cn(C/C=C/c4ccc(F)c(F)c4)nn3)c12	17900	6	11000	1070	–
